Assay results taken from patent US20150065526A1, “OVERCOMING ACQUIRED RESISTANCE TO CHEMOTHERAPY TREATMENTS THROUGH SUPPRESSION OF STAT3” (EMORY UNIVERSITY, priority 2013, published 2015).

How the values were obtained:
[1] = tested on: STAT3 phosphorylation, Bcl2/Bcl-XL in Tu212 and Tu686 cells; test: Western blot of Tu212 and Tu686 head and neck cancer cells; format: cell-based; conditions: erlotinib plus increasing concentrations of niclosamide, 48 h
STAT3 = STAT3 (Homo sapiens, UniProt P40763); conditions: cited from earlier work
Sequence of STAT3 (P40763 whole entry): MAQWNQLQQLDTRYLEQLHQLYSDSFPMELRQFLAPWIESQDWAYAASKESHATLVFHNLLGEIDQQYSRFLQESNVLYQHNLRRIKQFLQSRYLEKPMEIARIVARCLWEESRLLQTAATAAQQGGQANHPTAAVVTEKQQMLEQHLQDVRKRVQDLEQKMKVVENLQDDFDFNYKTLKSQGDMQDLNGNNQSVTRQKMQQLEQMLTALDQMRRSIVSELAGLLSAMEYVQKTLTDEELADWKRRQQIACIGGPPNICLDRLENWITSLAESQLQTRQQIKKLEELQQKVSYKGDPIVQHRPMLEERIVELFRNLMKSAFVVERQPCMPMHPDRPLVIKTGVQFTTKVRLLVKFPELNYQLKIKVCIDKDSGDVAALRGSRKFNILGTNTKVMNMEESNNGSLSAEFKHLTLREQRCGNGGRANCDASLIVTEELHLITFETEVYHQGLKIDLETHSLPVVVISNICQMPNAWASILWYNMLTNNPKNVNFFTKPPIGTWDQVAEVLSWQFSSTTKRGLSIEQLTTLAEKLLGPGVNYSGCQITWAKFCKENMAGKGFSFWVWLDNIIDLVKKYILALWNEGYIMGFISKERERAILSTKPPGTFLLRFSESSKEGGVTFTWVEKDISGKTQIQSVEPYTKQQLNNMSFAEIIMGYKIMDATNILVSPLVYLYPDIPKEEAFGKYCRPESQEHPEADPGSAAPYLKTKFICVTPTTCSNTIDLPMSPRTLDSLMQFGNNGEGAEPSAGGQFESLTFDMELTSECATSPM

[2] = tested on: HCC827 lung cancer xenografts; conditions: niclosamide 20 mg/kg/d
Experimental: (§1) Each group includes 8 mice. Tumor volume was measured once every 2 days. After 32 days, the mice were sacrificed and the tumors were removed and analyzed. Representative tumor pictures were taken. B, active caspase-3 was analyzed in tumor tissues at the end of experiments by IHC staining and quantified as described in Materials and Methods. C, expression levels of pEGFR, pSTAT3, Bcl2, and Bcl-XL from tumor tissues in various treatment groups were analyzed by Western blot analysis.
(§2) The control group was treated with 0.5% DMSO vehicle.

[3] = tested on: HCC827/ER lung cancer xenografts; conditions: niclosamide 20 mg/kg/d
Experimental: as §1, §2

[4] = tested on: Tu212 head and neck cancer xenografts; test: Tu212 head and neck cancer xenografts in mice; format: in vivo; conditions: for Xenograft tumor growth, Tu212: erlotinib 40 mg/kg/d, niclosamide 20 mg/kg/d, two weeks
Experimental: Each group included 8 mice. Tumor volume was measured once every 2 days. After 14 days, the mice were sacrificed and the tumors were removed and analyzed. Representative tumor pictures were taken. B, Active caspase 3 and Ki 67 were analyzed in tumor tissues at the end of experiments by IHC staining and quantified. C, Expression levels of pEGFR, pSTAT3, Bcl2 and Bcl-XL in tumor tissues from various treatment groups were analyzed by Western blot.
First, head and neck cancer xenografts were generated using Tu212 cells.

[5] = tested on: PTPMeg2, pSTAT3, Bcl2, Bcl-XL, JAK2, c-Src in HCC827 cells; test: Western blot of HCC827 cells treated with erlotinib; format: cell-based, human

| Structure (SMILES) | Erlotinib-induced STAT3 phosphorylation and Bcl2/Bcl-XL (Western blot) [1] | Activation of upstream proteins JAK2 and Src (STAT3) | STAT3 Tyr705 phosphorylation and transcriptional activity (STAT3) | STAT3 phosphorylation, Bcl2 and Bcl-XL in tumor lysates (Western blot), HCC827 [2] | STAT3 phosphorylation, Bcl2 and Bcl-XL in tumor lysates (Western blot), HCC827/ER [3] | Xenograft tumor growth, Tu212 [4] | Erlotinib-stimulated STAT3 phosphorylation, Bcl2 and Bcl-XL in tumor tissue lysates, Tu212 ([4]; three mice in each treatment group) | JAK2 and c-Src phosphorylation [5] | PTPMeg2 expression [5] | STAT3/Bcl2/Bcl-XL pathway status [5] | Tumor volume, HCC827/ER xenografts ([3]; erlotinib 40 mg/kg/d, 32 days) |
| --- | --- | --- | --- | --- | --- | --- | --- | --- | --- | --- | --- |
| O=C(Nc1ccc([N+](=O)[O-])cc1Cl)c1cc(Cl)ccc1O [niclosamide] | inhibited erlotinib-induced STAT3 phosphorylation and downregulated Bcl2/Bcl-XL in a dose-dependent manner | no obvious inhibitory effect | can inhibit Tyr705 site phosphorylation as well as transcriptional activity of STAT3 | blocks STAT3 phosphorylation in association with reduced Bcl2 and Bcl-XL | blocks STAT3 phosphorylation in association with reduced Bcl2 and Bcl-XL | modest efficacy | blocks erlotinib-stimulated STAT3 phosphorylation leading to decreased Bcl2 and Bcl-XL levels |  |  |  |  |
| C#Cc1cccc(Nc2ncnc3cc(OCCOC)c(OCCOC)cc23)c1 [erlotinib, N-(3-ethynylphenyl)-6,7-bis(2-methoxyethoxy)quinazolin-4-amine] |  |  |  |  |  | modest efficacy |  | inhibited JAK2 and c-Src phosphorylation | downregulates PTPMeg2 | activation of the STAT3/Bcl2/Bcl-XL pathway | tumor volumes comparable with those in the vehicle-treated control group |
